Laboratory results published in patent publication US7713963B2, “Acylated indanyl amines and their use as pharmaceuticals” (sanofi-aventis Deutschland GmbH, priority 2001, dated 2010).
Where two headings read alike, the source gives them in different places.

Test system: eNOS promoter
Experiment: Activation of eNOS transcription (eNOS promoter-luciferase reporter gene assay)
Assay type: cell-based, human
Conditions: for maximal fold induction: read-out: TIR (max)
Description: Measurement of activation of eNOS transcription Activation of eNOS transcription was measured as described in detail in Li et al. “Activation of protein kinase C alpha and/or epsilon enhances transcription of the human endothelial nitric oxide synthase gene”, Mol. Pharmacol. 1998; 53: 630-637. Briefly, a 3.5 kB long fragment 5′ of the starting codon of the eNOS gene was cloned, sequenced and cloned in firefly luciferase expression plasmids to monitor activation of the eNOS promoter by reporter gene activity. A human endothelial cell line stable transfected and expressing this promoter-reporter construct was used for compound testing. Cells were incubated for 18 h with compounds. All compounds were dissolved in sterile DMSO. A final concentration of 0.5% DMSO in complete medium was allowed. Induction of reporter gene expression in these cells was measured using a standard luciferase assay system (Promega, Cat. No E150) according to the manufacturer's instructions. Luciferase induction in cells incubated with compounds were compared to those incubated with solvent alone. The ratio of both activities (transcription induction ratio, TIR) was plotted as a function of compound concentration. […] EC50 values of transcription induction ratios as a function of compound concentration were determined graphically.

[1] = Homo sapiens, 18 h, maximum transcription induction ratio (luciferase with compound / solvent alone), 18 h incubation
[2] = Homo sapiens, Endothelial cell, 18 h, EC50 of transcription induction ratio, determined graphically, human endothelial cell line, 18 h incubation, read-out: EC-50
[3] = Homo sapiens, Endothelial cell, 18 h

Row | SMILES | maximal fold induction [1] | EC50 [2] | also measured
1 | O=C(NC1Cc2ccccc2C1)c1ccc(C(=O)C(F)(F)F)cc1 [Compound 256, N-INDAN-2-YL-4-(2,2,2-TRIFLUORO-ACETYL)-BENZAMIDE] | 2.5 | 11 µM | –
2 | Cc1cc(C(=O)NC2Cc3ccccc3C2)ccc1Cl [Compound 27, 4-CHLORO-3-METHYL-N-INDAN-2-YL-BENZAMIDE] | 3.6 | 0.2 µM | –
3 | Cc1ccc(C(=O)NC2Cc3ccccc3C2)cc1Cl [Compound 34, 3-CHLORO-4-METHYL-N-INDAN-2-YL-BENZAMIDE] | 3.4 | 1.7 µM | –
4 | CSc1ccc(C(=O)NC2Cc3ccccc3C2)cc1 [Compound 292, N-INDAN-2-YL-4-METHYLSULFANYL-BENZAMIDE] | – | – | maximal fold induction (Homo sapiens, 18 h): 2.9; EC50 [3]: 0.039 µM
5 | O=C(NC1Cc2ccccc2C1)c1c(F)cccc1Br [Compound 358, 2-BROMO-6-FLUORO-N-INDAN-2-YL-BENZAMIDE] | 2.5 | 4.7 µM | –
6 | O=C(NC1Cc2ccccc2C1)c1ccc(Br)s1 [Compound 41, 5-BROMO-THIOPHEN-2-CARBOXYLIC ACID-INDAN-2-YLAMIDE] | 2.4 | 0.18 µM | –
7 | O=C(NC1Cc2ccccc2C1)c1cc(Cl)ccc1F [Compound 330, 5-CHLORO-2-FLUORO-N-INDAN-2-YL-BENZAMIDE] | 2.2 | 12 µM | –
8 | O=C(NC1Cc2ccccc2C1)c1cccc2ccccc12 [Compound 294, NAPHTHALENE-1-CARBOXYLIC ACID INDAN-2-YLAMIDE] | 2.2 | 14 µM | –
9 | Cc1cc(C)c(C(=O)NC2Cc3ccccc3C2)c(N)n1 [Compound 187, 2-AMINO-N-INDAN-2-YL-4,6-DIMETRYL-NICOTINAMIDE] | – | – | EC50 (EC50 of transcription induction ratio, determined graphically, human endothelial cell line, 18 h incubation, read-out: EC-50): 4.4 µM; TIR (max) (maximum transcription induction ratio (luciferase with compound / solvent alone), 18 h incubation): 2.5
10 | O=C(NC1Cc2ccccc2C1)c1cccc(-c2cccnc2)c1 [Compound 432, N-INDAN-2-YL-3-PYRIDIN-3-YL-BENZAMIDE] | 2.5 | 9.6 µM | –
11 | Cc1c(C(=O)NC2Cc3ccccc3C2)cnn1-c1ccc(Cl)cc1 [Compound 341, 1-(4-CHLORO-PHENYL)-5-METHYL-1H-PYRAZOLE-4-CARBOXYLIC ACID INDAN-2-YLAMIDE] | 2.5 | 22 µM | –
12 | Cc1c(C(=O)NC2Cc3ccccc3C2)oc2ccccc12 [Compound 319, 3-METHYL-BENZOFURAN-2-CARBOXYLIC ACID INDAN-2-YLAMIDE] | 2.4 | 25 µM | –
13 | O=C(NC1Cc2ccccc2C1)c1ccc(OCC(F)(F)F)cc1 [Compound 386B, N-INDAN-2-YL-4-(2,2,2-TRIFLUORO-ETHOXY)-BENZAMIDE] | 2.5 | 0.309 µM | –
14 | Nc1ccccc1C(=O)NC1Cc2ccccc2C1 [Compound 73, 2-AMINO-N-INDAN-2-YL-BENZAMIDE] | 4 | 0.7 µM | –
15 | Cc1cc(C)c(C(=O)NC2Cc3ccccc3C2)c(C)c1 [Compound 282, N-INDAN-2-YL-2,4,6-TRIMETHYL-BENZAMIDE] | 2.3 | 16 µM | –
16 | Cc1nc(C)c(C(=O)NC2Cc3ccccc3C2)s1 [Compound 233, 2,4-DIMETHYL-THIAZOLE-5-CARBOXYLIC ACID INDAN-2-YLAMIDE] | 2.5 | 13 µM | –
17 | O=C(NC1Cc2cccc(C(F)(F)F)c2C1)c1ccc(F)cc1 (stereo not shown) [Compound 439, 4-FLUORO-N-(4-TRIFLUOROMETHYL-INDAN-2-YL)-BENZAMIDE] | 2.6 | 8.9 µM | –
18 | CCCc1c(C(=O)NC2Cc3ccccc3C2)cnn1-c1ccc(Cl)cc1 [Compound 322, 1-(4-CHLORO-PHENYL)-5-PROPYL-1H-PYRAZOLE-4-CARBOXYLIC ACID INDAN-2-YLAMIDE] | 2.3 | 23 µM | –
19 | CC1=C(C(=O)NC2Cc3ccccc3C2)Cc2ccccc21 [Compound 251, 3-METHYL-1H-INDENE-2-CARBOXYLIC ACID INDAN-2-YLAMIDE] | 2.6 | 13 µM | –
20 | O=C(NC1Cc2c(I)ccc(I)c2C1)c1ccc(F)cc1 [Compound 429, N-(4,7-DIIODO-INDAN-2-YL)-4-FLUORO-BENZAMIDE] | 2.8 | 0.6 µM | –
21 | Nc1c(C(=O)NC2Cc3ccccc3C2)cnn1-c1ccccc1 [Compound 427, 5-AMINO-1-PHENYL-1H-PYRAZOLE-4-CARBOXYLIC ACID INDAN-2-YLAMIDE] | 2.5 | 3.7 µM | –
22 | CCc1cccc2c1CC(NC(=O)c1ccc(F)cc1)C2 (stereo not shown) [Compound 428, N-(4-ETHYL-INDAN-2-YL)-4-FLUORO-BENZAMIDE] | 2.8 | 0.841 µM | –

Row | SMILES | maximal fold induction [1] | EC50 [2] | also measured
23 | O=C(NC1Cc2ccccc2C1)c1cccc(Oc2ccccc2)c1 [Compound 286, N-INDAN-2-YL-3-PHENOXY-BENZAMIDE] | 2.6 | 26 µM | –
24 | O=C(NC1Cc2cc(Br)c(Br)cc2C1)c1ccc(F)cc1 [Compound 397, N-(5,6-DIBROMO-INDAN-2-YL)-4-FLUORO-BENZAMIDE] | 1.7 | 30 µM | –
25 | Cc1ccc(F)cc1C(=O)NC1Cc2ccccc2C1 [Compound 248, 5-FLUORO-N-INDAN-2-YL-2-METHYL-BENZAMIDE] | 2.8 | 7.8 µM | –
26 | O=C(C=Cc1cccc2c1CC(NC(=O)c1ccc(F)cc1)C2)Nc1ccc(Cl)cc1 (stereo not shown) [Compound 413, N-{4-[2-(4-CHLORO-PHENYLCARBAMOYL)-VINYL]-INDAN-2-YL}-4-FLUORO-BENZAMIDE] | 2.5 | 8.5 µM | –
27 | Nc1c(C(=O)NC2Cc3ccccc3C2)cnn1-c1ccccn1 [Compound 386A, 5-AMINO-1-PYRIDIN-2-YL-1H-PYRAZOLE-4-CARBOXYLIC ACID INDAN-2-YLAMIDE] | 3.3 | 5.1 µM | –
28 | CS(=O)(=O)c1csc(C(=O)NC2Cc3ccccc3C2)c1Cl [Compound 321, 3-CHLORO-4-METHANESULFONYL-THIOPHENE-2-CARBOXYLIC ACID INDAN-2-YLAMIDE] | 2.5 | 9.6 µM | –
29 | CC(=O)Nc1cccc(C(=O)NC2Cc3ccccc3C2)c1Cl [Compound 267, 3-ACETYLAMINO-2-CHLORO-N-INDAN-2-YL-BENZAMIDE] | 2.5 | 2.8 µM | –
30 | O=C(NC1Cc2ccccc2C1)c1ccc(-c2ccccn2)cc1 [Compound 436, N-INDAN-2-YL-4-PYRIDIN-2-YL-BENZAMIDE] | 2.6 | 18 µM | –
31 | O=C(NC1Cc2ccccc2C1)c1ccc(Cl)cc1Br [Compound 331, 2-BROMO-4-CHLORO-N-INDAN-2-YL-BENZAMIDE] | 2.8 | 0.147 µM | –
32 | O=C(NC1Cc2ccccc2C1)c1ccc(Cl)nc1Cl [Compound 203, 2,6-DICHLORO-N-INDAN-2-YL-NICOTINAMIDE] | 2.7 | 16 µM | –
33 | O=C(NC1Cc2ccccc2C1)c1cc(F)c(Cl)cc1Cl [Compound 262, 2,4-DICHLORO-5-FLUORO-N-INDAN-2-YL-BENZAMIDE] | 2.8 | 5.8 µM | –
34 | CCOc1cc(C(=O)NC2Cc3ccccc3C2)ccc1OC [Compound 25, 3-ETHOXY-4-METHOXY-N-INDAN-2-YL-BENZAMIDE] | 2.7 | 12 µM | –
35 | CC(C)Oc1ccc(C(=O)NC2Cc3ccccc3C2)cc1 [Compound 28, 4-ISOPROPYLOXY-N-INDAN-2-YL-BENZAMIDE] | 4.4 | 2.5 µM | –
36 | O=C(NC1Cc2ccccc2C1)c1ccoc1 [Compound 296, FURAN-3-CARBOXYLIC ACID INDAN-2-YLAMIDE] | 2.5 | 13 µM | –
37 | O=C(NC1Cc2ccccc2C1)c1ccc2ccccc2c1 [Compound 295, NAPHTHALENE-2-CARBOXYLIC ACID INDAN-2-YLAMIDE] | 2.4 | 0.846 µM | –
38 | COc1ccc(C(=O)NC2Cc3ccccc3C2)cc1Cl [Compound 31, 3-CHLORO-4-METHOXY-N-INDAN-2-YL-BENZAMIDE] | 3.05 | 6 µM | –
39 | O=C(NC1Cc2ccccc2C1)c1cccc(-c2ccccn2)c1 [Compound 433, N-INDAN-2-YL-3-PYRIDIN-2-YL-BENZAMIDE] | 2.6 | 19 µM | –
40 | O=C(NC1Cc2ccccc2C1)c1cccc(Br)c1 [Compound 382, 3-BROMO-N-INDAN-2-YL-BENZAMIDE] | 2.5 | 21 µM | –
41 | Cc1ccc(C(=O)Nc2cccc(C(=O)NC3Cc4ccccc4C3)c2)cc1 [Compound 381, 3-(4-METHYL-BENZOYLAMINO)-BENZOIC ACID INDAN-2-YLAMIDE] | 2.5 | 12 µM | –
42 | CC(=O)Oc1cc(C)ccc1C(=O)NC1Cc2ccccc2C1 [Compound 7, ACETIC ACID 2-(INDAN-2-YL-CARBAMOYL)-5-METHYL-PHENYLESTER] | – | – | maximal fold induction (Homo sapiens, 18 h): 2.57; EC50 [3]: 0.1 µM
43 | O=C(NC1Cc2ccccc2C1)c1cccc(F)c1F [Compound 302, 2,3-DIFLUORO-N-INDAN-2-YL-BENZAMIDE] | 2.8 | 27 µM | –
44 | Cc1ccc(F)c(C(=O)NC2Cc3ccccc3C2)c1Cl [Compound 346, 2-CHLORO-6-FLUORO-N-INDAN-2-YL-3-METHYL-BENZAMIDE] | 2.6 | 26 µM | –
